According to PMC8743659, “C1632 suppresses the migration and proliferation of non‐small‐cell lung cancer cells involving LIN28 and FGFR1 pathway” (Journal of Cellular and Molecular Medicine, 2021):

Legend:
[1] = test system: A549R cells; experiment: Colony formation assay; format: cell-based, human; conditions: A549R, 15, 30 and 60 mg/L, dose-dependent; stronger than in A549
Procedure: (§1) First, cells were treated with indicated concentrations of C1632 or 0.01% DMSO for 5 days. Then these cells were separated into single cells that were directly used for cloning. During the process of cloning, C1632‐treated A549 or A549R cells were still maintained in DMEM plus 10% FBS medium containing the indicated concentration of C1632 (15, 30, and 60 mg/L), while the control group was cultured with 0.01% DMSO. Both culture media were changed for every 2 days until 10 days. The number of forming colonies in C1632 or 0.01% DMSO‐treated groups was counted and the images were taken.

[2] = test system: A549 cells; experiment: Colony formation assay; format: cell-based, human; conditions: A549, 15, 30 and 60 mg/L, dose-dependent
Procedure: as §1

[3] = test system: A549R cells; experiment: Cell adhesion assay; format: cell-based, human; conditions: fibronectin-coated plate, concentration-dependent
Procedure: (§2) The cell adhesion assay was performed as indicated previously.[38] Briefly, the 96‐well plate was coated with human fibronectin (Millipore), and then cells were seeded into the 96‐well plate and cultured for another 1 h at 37°C in a 5% CO2 incubator. Finally, rinsing the plate before fixed with 10% formalin and stained with crystal violet. As followed, wash the plate with ddH2O and add 100 μl acetic acid (33%) into the plate to dissolve the crystal violet. The absorbance at 560 nm was detected by Synergy H1 Multi‐Mode Reader (BioTek). Relative number of cells attaching to extracellular matrix was evaluated using the following equation: mean OD of treated cells/mean OD of control cells.

[4] = test system: A549 cells; experiment: Cell adhesion assay; format: cell-based, human; conditions: A549, fibronectin-coated plate, concentration-dependent
Procedure: as §2

[5] = test system: FGFR1; experiment: Western blot of FGFR1 signalling in NSCLC cells; format: cell-based, human; conditions: A549 and A549R cells, C1632 5 days, dose-dependent
Procedure: The total cell protein was extracted and denaturized at 95°C for 10 min. Samples were separated in SDS‐PAGE gel, then transferred to a PVDF membrane. […] Blots were probed with relevant primary antibodies against FGFR1 (CST), p‐FGFR1 (CST), MAPK (CST), p‐MAPK (CST), FAK (CST), p‐FAK (CST), MMP‐9 (CST), LIN28B (CST), GAPDH (CST), and β‐actin (proteintech) overnight at 4°C, respectively. Then the lanes were detected with HRP‐conjugated secondary antibodies and visualized using WESTAR SUPERNOVA kit ([…]).

[6] = Tissue distribution study; format: in vivo, mice; conditions: mouse, 20 mg/kg
Procedure: Agilent 1290 UHPLC system and 6420 series Triple‐Quadrupole Tandem Mass Spectrometer (Agilent Corporation) maintained at 35°C with a ZORBAX Eclipse Plus C18 column (1.8 μm, 2.1 × 50 mm). The mobile phase was a gradient elution program consisting of solvent A with solvent B at a flow rate of 0.4 ml/min. Mobile phase A was 0.1% formic acid in water (v/v), and mobile phase B was acetonitrile. The optimal gradient elution program was as follows: 0–0.5 min, linear from 80% to 5% A; 0.5–1.5 min, 5% A; 1.5–1.6 min, linear from 5% to 80% A. The post‐time was 1.3 min for equilibration of the column and the total runtime was 1.8 min. The mass spectrometer was acquired in an ESI‐positive mode with multiple reaction monitoring (MRM). Instrument control and data acquisition were performed on the MassHunter Agilent Software (version B.07.00).
The desolation gas (nitrogen) flow was set to 10 L/h: the capillary voltage: 4000 V; nebulizing gas and drying gas (both nitrogen): 45 psi and 350°C, respectively. The MRM mode with m/z 282.2→76.9 for C1632 and m/z 282.1→194.0 for IS was used for quantitative analysis.
Twenty‐four mice were randomly divided into four groups (six mice for each group, one group for each time point) and received 20 mg/kg […] of C1632 by oral administration. The mice were euthanized by decapitation at 0 (blank group), 0.25, 2 and 6 h after C1632 was given. Tissues were collected and washed with normal saline, then homogenized and subjected to sample preparation. Subsequently, the concentration of C1632 was determined by UHPLC‐MS/MS.

[7] = test system: A549R cells; experiment: Edu staining assay; format: cell-based, human; conditions: A549R, 15, 30 or 60 mg/L, 5 days, dose-dependent
Procedure: (§3) Edu staining assay was carried out according to Edu staining Kit (Beyotime). First, A549 or A549R cells were seeded in 6‐well plates and cultured in RPMI medium 1640 containing 10% FBS, then treated with C1632 (15, 30, or 60 mg/L) for 5 days. Subsequently, cells were incubated with Edu for 3 h, fixed with 4% paraformaldehyde for 15 min, and permeated with 0.3% Triton X‐100 for another 15 min. Then cells were incubated with the Click Reaction Mixture provided by Edu staining Kit for 30 min at room temperature in dark and then stained with DAPI. Finally, the stained cells were scanned and imaged under Nikon Ti microscope.

[8] = test system: A549 cells; experiment: Edu staining assay; format: cell-based, human; conditions: A549, 15, 30 or 60 mg/L, 5 days, dose-dependent
Procedure: as §3

[9] = test system: A549R cells; experiment: Cell cycle distribution analysis (flow cytometry); format: cell-based, human; conditions: A549R, 15, 30 and 60 mg/L, 5 days, dose-dependent
Procedure: (§4) Cells were cultured in the absence or presence of 15, 30, and 60 mg/L of C1632 or 0.01% DMSO for 5 days, trypsinized, washed, and stained with propidium iodide before cell cycle distribution was assessed on a flow cytometer (BD FACSCalibur, BD Biosciences).

[10] = test system: A549 cells; experiment: Cell cycle distribution analysis (flow cytometry); format: cell-based, human; conditions: A549, 15, 30 and 60 mg/L, 5 days, dose-dependent
Procedure: as §4

## CC(=O)N(C)c1cccc(-c2ccc3nnc(C)n3n2)c1 [C1632]
[1]
  formation of colony units: inhibited
[2]
  formation of colony units: inhibited
[3]
  cell adhesion to the matrix: significant decrease
[4]
  cell adhesion to the matrix: significant decrease
[5]
  expression of FGFR1 and FGFR1 phosphorylation: inhibited
  phosphorylation of the downstream kinase MAPK: inhibited
[6]
  level of C1632 in the brain: remained low
[6]; 0.25 h, followed by kidney, heart and spleen
  tissues with the highest level of C1632: highest in the lung and liver
[6]; tissues (major organs), homogenized, oral administration, sampled at 0.25, 2 and 6 h, read-out: time of peak concentration in major organs
  Tmax: 15 min
[7]
  DNA replication: significant inhibition
[8]
  DNA replication: significant inhibition
[9]
  cell cycle distribution: arrested A549 and A549R cells at the G0/G1 phase
[10]
  cell cycle distribution: arrested A549 and A549R cells at the G0/G1 phase
